{
  "source": "patent US8193225B2",
  "about": "“Isoxazole amides, derivatives and methods of chemical induction of neurogenesis” (priority 2006, dated 2012)",
  "key": {"HCN cells [1]": {"tested_on": "HCN cells", "assay": "in vitro neuronal differentiation of HCN cells (morphology, Tuj1 staining)", "format": "cell-based, rat", "details": "for morphologic neuronal differentiation of NPCs: 25 μM AMPA or 50 μM Muscimol; for effect of inhibitor on Isx-9 neurogenic activity (Tuj1+ cells): Isx-9-treated HCN cells, KN93 2 d cultures"}, "[2]": {"tested_on": "MEF2 reporter gene (3XMRE-luc)", "assay": "MEF2 reporter gene (3XMRE-luc) assay in HCN cells", "format": "cell-based, rat", "details": "Isx-9-treated HCN cells; KN93, KN92 5 μM (10, 5, 1 μM), G66976 200 nM"}, "HDAC5": {"tested_on": "HDAC5", "assay": "protein blotting of phospho-HDAC5, HDAC4 and phospho-CaMKII in HCN cells", "format": "cell-based, rat", "details": "Isx/Isx-9-treated NSCs; KN93, KN92 5 μM"}, "neuroD-luciferase": {"tested_on": "neuroD-luciferase", "assay": "neuroD-luciferase reporter gene assay in HCN cells", "format": "cell-based, rat", "details": "for effect of inhibitor on neuroD-luc activity of Isx/Isx-9-treated cells: inhibitor added to Isx/Isx-9-treated HCNs/NPCs, 24 h"}, "pHDAC5:14-3-3-luciferase": {"tested_on": "pHDAC5:14-3-3-luciferase", "assay": "mammalian 2-hybrid luciferase assay (pHDAC5:14-3-3-luciferase)", "format": "cell-based, rat", "details": "Isx-9-treated NSCs", "description": "FIGS. 5A-F—CaMK is the major HDAC kinase activated by Isx small-molecules in NSCs. […] The doses of KN93 and KN92 in reporter assays were 10, 5, and 1 μM. (FIG. 5D) A schematic diagram of a mammalian 2-hybrid luciferase assay system (pHDAC5:14-3-3-luciferase) which is dependent on the interaction of HDAC5 and 14-3-3. […] (FIG. 5E) Shown are representative images and quantification of the percentage of Isx-9-treated HCNs showing GFP-HDAC5 localization in nuclear (Nuc), cytoplasmic (Cyto), or both compartments (Nuc/Cyto) with and without KN93 or KN92 treatment after 24 h. […] Scale bar: 5 μm. Values in […] represent the average of 12 replicates±SD. Values in FIG. 5E represent the average of 2 replicates+SD of one representative experiment from two independent experiments.\nReporter gene assay. All reporter gene assays were done in 96-well format, and each data point represents the average of 12 replicates. Reporter genes included neuroD-, gIuR2-, MREx3-, NR1-, and pHDAC5:14-3-3-luciferase and each well contained ˜25,000 cells in a volume of 100 μl. 5×10^6 HCN cells were transfected with 5 μg DNA by electroporation (Amaxa) and plated in growth media overnight. In the case of pHDAC5:14-3-3-luciferase, cells were transfected with 2 μg of each plasmid. Compounds were added the day following transfection and luciferase assays were performed 24 or 48 h later. […]"}, "HCN cells [3]": {"tested_on": "HCN cells", "assay": "RT-PCR and protein blotting of gene expression in HCN cells", "format": "cell-based, rat", "details": "NPCs, 50 μM Muscimol"}, "Nkx2.5-luc": {"tested_on": "Nkx2.5-luc", "assay": "Nkx2.5-luc reporter in P19CL6 clone #5-1", "format": "cell-based, mouse", "description": "Assay development. An Nkx2.5-luc transgene was constructed by replacing the two coding sequence exons of NRx2.5 locus from the ATG with the coding sequence of luc (from pGL3-basic vector, Promega) in an ˜180,000 base pair-long BAC (FIG. 11). The recombinant BAC DNA was introduced into pluripotent P19CL6 cells using Lipofectamine-2000 (Invitrogen) and neo^R clones were selected, and tested for chemically inducible luc activity with sodium butyrate (NaB). #5-1, a clonal stem cell line with low basal and at least a 4-fold higher NaB-inducible luciferase activity compared to vehicle control (DMSO), yielding a Z′ value of 0.7 in 384-well plate format (Zhang et al. 1999), was chosen for the HTS."}, "HCN cells [4]": {"tested_on": "HCN cells", "assay": "cell death in HCN cells (propidium iodide/Hoescht live staining)", "format": "cell-based, rat", "details": "2 μM Q-VD-Oph", "description": "Neural stem cell culture, in vitro differentiation, and CaMK inhibitor studies. The hippocampal neural stem/progenitor (NSC) line used in this study (HCN cells) were originally isolated from adult (8-10 wks old) female Fisher 344 rats and have been characterized previously (Gage et al., 1995; Palmer et al., 1997). HCN cells were cultured in DMEM:F12 (Omega Scientific) with N2 supplement (Invitrogen) and basic fibroblast growth factor (20 ng/ml FGF-2) (PeproTech). The mouse whole brain neural stem/progenitors (MWB) were derived from adult (8-10 wks old) C57BL/6 mice that have been characterized previously (Ray and Gage, 2006). […]\nImmunostaining, GFP-HDAC5 visualization, and fluorescence microscopy. […] Quantification of cell phenotype was done by sampling 6-8 random fields in each well and counting a total of 250-500 cells at 20× magnification. […] For quantification of live/dead cells, images were taken of cultures live-stained with propidium iodide and Hoescht 33342 at 20× magnification, and 500-1000 cells were counted by sampling 6-8 random fields in each well. For quantification of HDAC5 subcellular localization, 20× images were taken of live cultures, and 40-50 GFP+ cells were counted by sampling 3 random fields in each well. […]"}},
  "note": "“Also recorded” adds a separate entry of the source.",
  "data": [
    {"smiles": "Cc1onc(O)c1CC(N)C(=O)O", "note": "(stereo not drawn) [AMPA, α-amino-3-hydroxy-5-methyl isoxazole-4-proprionic acid]", "values": [
      {"measurement": "morphologic neuronal differentiation of NPCs", "setting": "HCN cells [1]", "result": "failed to induce morphologic neuronal differentiation"}
    ]},
    {"smiles": "Cn1c2ccccc2c2c3c(c4c5ccccc5n(CCC#N)c4c21)CNC3=O", "note": "[Isx G66976]", "values": [
      {"measurement": "effect of kinase inhibitor on Isx-9-mediated MEF2 reporter activation", "setting": "[2]", "result": "did not significantly affect Isx-induced reporter gene expression; also recorded: completely ineffective"},
      {"measurement": "effect of inhibitor on phospho-HDAC5 and phospho-CaMKII levels", "setting": "HDAC5", "result": "did not"},
      {"measurement": "effect of inhibitor on neuroD-luc activity of Isx/Isx-9-treated cells", "setting": "neuroD-luciferase", "result": "did not significantly affect Isx-induced reporter gene expression"}
    ]},
    {"smiles": "COc1ccc(S(=O)(=O)Nc2ccccc2CN(C)C/C=C/c2ccc(Cl)cc2)cc1", "note": "[KN92]", "values": [
      {"measurement": "effect of kinase inhibitor on Isx-9-mediated MEF2 reporter activation", "setting": "[2]", "result": "had no effect"},
      {"measurement": "effect of inhibitor on phospho-HDAC5 and phospho-CaMKII levels", "setting": "HDAC5", "result": "had no effect"},
      {"measurement": "HDAC5 kinase activity (pHDAC5:14-3-3-luciferase)", "setting": "pHDAC5:14-3-3-luciferase", "result": "not"}
    ]},
    {"smiles": "COc1ccc(S(=O)(=O)N(CCO)c2ccccc2CN(C)C/C=C/c2ccc(Cl)cc2)cc1", "note": "[KN93]", "values": [
      {"measurement": "effect of kinase inhibitor on Isx-9-mediated MEF2 reporter activation", "setting": "[2]", "result": "extremely effective in blocking Isx-mediated reporter gene expression; also recorded: blocked Isx-9-mediated MEF2 reporter activation"},
      {"measurement": "effect of inhibitor on phospho-HDAC5 and phospho-CaMKII levels", "setting": "HDAC5", "result": "blocked HDAC5 phosphorylation; also recorded: decreased phospho-HDAC5 and active phospho-CaMKII levels"},
      {"measurement": "effect of inhibitor on neuroD-luc activity of Isx/Isx-9-treated cells", "setting": "neuroD-luciferase", "result": "extremely effective in blocking Isx-mediated reporter gene expression"},
      {"measurement": "HDAC5 kinase activity (pHDAC5:14-3-3-luciferase)", "setting": "pHDAC5:14-3-3-luciferase", "result": "completely blocked HDAC5 kinase activity"},
      {"measurement": "effect of inhibitor on Isx-9 neurogenic activity (Tuj1+ cells)", "setting": "HCN cells [1]", "result": "resulted in an inhibition of Isx-9 neurogenic activity"}
    ]},
    {"smiles": "C[C@]12N[C@H](Cc3ccccc31)c1ccccc12", "note": "[MK801]", "values": [
      {"measurement": "effect of inhibitor on neuroD-luc activity of Isx/Isx-9-treated cells", "setting": "neuroD-luciferase", "result": "small but significant decrease; also recorded: attenuated neuroD-luc activity"}
    ]},
    {"smiles": "NCc1cc(O)no1", "note": "[Muscimol, 5-aminomethyl-3-hydroxy-isoxazole]", "values": [
      {"measurement": "GluR2/3 protein expression", "setting": "HCN cells [3]", "result": "increase"},
      {"measurement": "neuroD-luciferase activity", "setting": "neuroD-luciferase; NPCs, 15 μM Muscimol", "result": "an increase in neuroD-luciferase activity"},
      {"measurement": "morphologic neuronal differentiation of NPCs", "setting": "HCN cells [1]", "result": "failed to induce morphologic neuronal differentiation"}
    ]},
    {"smiles": "CCCC(=O)[O-].[Na+]", "note": "[NaB, sodium butyrate]", "values": [
      {"measurement": "inducible luciferase activity compared to vehicle control (DMSO)", "setting": "Nkx2.5-luc", "result": "≥ 4", "unit": "fold"}
    ]},
    {"smiles": "CC(C)[C@H](NC(=O)c1ccc2ccccc2n1)C(=O)N[C@@H](CC(=O)O)C(=O)COc1c(F)cccc1F", "note": "[Q-VD-Oph]", "values": [
      {"measurement": "cell death in Isx-9-treated HCNs", "setting": "HCN cells [4]", "result": "blocks cell death"},
      {"measurement": "effect of inhibitor on Isx-9 neurogenic activity (Tuj1+ cells)", "setting": "HCN cells [1]", "result": "does not further increase Tuj1+ cells"}
    ]}
  ]
}
